These results are taken from PMC10560236, “A protein kinase C α and β inhibitor blunts hyperphagia to halt renal function decline and reduces adiposity in a rat model of obesity-driven type 2 diabetes” (Scientific Reports, 2023).

The term IC50 denotes the concentration at which inhibition is half-maximal.

In assay [1] the test system is ZSF1 obese rats. In words: 7-day oral gavage study, food consumption and body weight. It is filed as in vivo, rat. As to conditions: 100 mpk daily oral gavage, 7 days.
Assay [2] addresses PKCβ1 (Homo sapiens, UniProt P05771). Briefly: Z'-Lyte recombinant enzyme assay, PKCβ1. It is filed as biochemical. How it is done:
(§1) Half maximal inhibitory concentrations of Cmpd 1 were determined by Z’-Lyte biochemical assays (Life Technologies SelectScreen™ Kinase Profiling Services, Thermo Fisher Scientific). Kinome selectivity was determined at 1 μM Cmpd 1 concentration against a panel of 119 kinases. The original kinome tree in Fig. 1b was taken from Ref.[68].

The target of assay [3] is PKC activity in glomerular lysates from ZSF1 obese rats. In words: Radioactive pan-PKC kinase assay with glomerular lysates. It is filed as biochemical, rat. The settings on record: glomerular lysates from 20-week old ZSF1 obese rats, pan-PKC pseudo-substrate peptide. How it is done: Glomeruli were isolated using an established protocol of serially sieving minced kidney cortex tissue through mesh filters of decreasing pore size[69]. For radioactive pan-PKC assays, glomeruli were lysed in a buffer consisting of 50 mM Tris–HCl pH 8, 5 mM EDTA, 5 mM EGTA, protease and phosphatase inhibitor cocktails, 1% 2-mercaptoethanol, and 0.028% n-dodecyl-β-D-maltopyranoside (Anatrace D310) by sonication using two 10 s pulses with a probe sonicator. Supernatants were collected following centrifugation at 4 °C at 20,200 × g for 10 min. A 25 μL aliquot was used in a 50 μL ^32P-ATP pan-PKC radioactive kinase assay with the pan-PKC pseudo-substrate peptide RFARKGSLRQKNV. The reaction was incubated for 10 min at 37 °C prior to filter binding and scintillation counting. Data are reported as CPM incorporation per μg of total protein in the reaction, as determined using Pierce Coomassie Plus Protein Assay of the original lysate (Pierce 23236). Where indicated, the reaction was run in the presence of increasing amounts of Cmpd 1.

The subject of assay [4] is PKCα/β. Briefly: In vivo kinase occupancy profiling of spleens (probe-based chemoproteomics). On the set-up: species or system rat. As to conditions: Cmpd 1 chow-dosed ZSF1 obese rats; only PKCα/β from over 200 detectable kinases. How it is done:
In vivo kinase profiling Spleens from 22–23 week old ZSF1 obese male rats provided no drug Chow or Cmpd 1 chow (n = 2 each) were snap frozen, pulverized, and approximately 100–150 mg of each sample were sent to ActiveX for analysis using a probe-based chemoproteomics platform to measure the fraction of kinase bound versus unbound by an ATP-competitive inhibitor. A kinase bound by an ATP-competitive inhibitor such as Cmpd 1 will be less accessible to a covalent ATP probe, and will consequently have a reduced peak in quantitative mass spectrometry of the tryptic fragment corresponding to its active site pulled down by the covalent biotinylated ATP probe. Lysates from n = 2 animals for each group were combined for the analysis.

Assay [5] has as its target PKCδ (Homo sapiens, UniProt Q05655). Briefly: Z'-Lyte recombinant enzyme assay, PKCδ. The assay is classed as biochemical. On the procedure:
as §1

Assay [6] relates to PKC family members. Briefly: Selectivity within PKC family (enzymatic assays). The assay is classed as biochemical. As to conditions: PKC family members other than α, β, θ, γ. On the procedure: as §1
Assay [7] concerns the target PKCα (Homo sapiens, UniProt P17252). In words: Z'-Lyte recombinant enzyme assay, PKCα. The assay is classed as biochemical. How it is done:
as §1

Each structure is given as a SMILES string. Bounds are passed on as bounds.

Sequence of PKCβ1 (P05771 whole entry): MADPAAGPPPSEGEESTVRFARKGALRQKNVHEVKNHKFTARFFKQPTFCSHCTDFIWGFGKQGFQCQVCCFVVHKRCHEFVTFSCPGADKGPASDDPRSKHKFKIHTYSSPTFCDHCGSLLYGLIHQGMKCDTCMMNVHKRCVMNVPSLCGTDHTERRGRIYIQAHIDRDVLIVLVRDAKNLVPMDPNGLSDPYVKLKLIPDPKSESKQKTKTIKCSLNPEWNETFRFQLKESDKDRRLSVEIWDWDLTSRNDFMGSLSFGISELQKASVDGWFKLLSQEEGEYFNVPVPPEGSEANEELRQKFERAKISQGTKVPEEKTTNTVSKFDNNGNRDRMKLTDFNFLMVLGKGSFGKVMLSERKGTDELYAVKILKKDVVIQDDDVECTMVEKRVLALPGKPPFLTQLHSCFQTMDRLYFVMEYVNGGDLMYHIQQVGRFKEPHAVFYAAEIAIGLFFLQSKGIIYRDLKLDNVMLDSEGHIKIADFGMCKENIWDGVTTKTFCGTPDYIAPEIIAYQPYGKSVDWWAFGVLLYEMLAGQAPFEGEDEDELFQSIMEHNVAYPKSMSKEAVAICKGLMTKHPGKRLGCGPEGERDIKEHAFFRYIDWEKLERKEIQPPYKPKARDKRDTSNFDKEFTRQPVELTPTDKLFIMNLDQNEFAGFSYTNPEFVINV
Sequence of PKCδ (Q05655 whole entry): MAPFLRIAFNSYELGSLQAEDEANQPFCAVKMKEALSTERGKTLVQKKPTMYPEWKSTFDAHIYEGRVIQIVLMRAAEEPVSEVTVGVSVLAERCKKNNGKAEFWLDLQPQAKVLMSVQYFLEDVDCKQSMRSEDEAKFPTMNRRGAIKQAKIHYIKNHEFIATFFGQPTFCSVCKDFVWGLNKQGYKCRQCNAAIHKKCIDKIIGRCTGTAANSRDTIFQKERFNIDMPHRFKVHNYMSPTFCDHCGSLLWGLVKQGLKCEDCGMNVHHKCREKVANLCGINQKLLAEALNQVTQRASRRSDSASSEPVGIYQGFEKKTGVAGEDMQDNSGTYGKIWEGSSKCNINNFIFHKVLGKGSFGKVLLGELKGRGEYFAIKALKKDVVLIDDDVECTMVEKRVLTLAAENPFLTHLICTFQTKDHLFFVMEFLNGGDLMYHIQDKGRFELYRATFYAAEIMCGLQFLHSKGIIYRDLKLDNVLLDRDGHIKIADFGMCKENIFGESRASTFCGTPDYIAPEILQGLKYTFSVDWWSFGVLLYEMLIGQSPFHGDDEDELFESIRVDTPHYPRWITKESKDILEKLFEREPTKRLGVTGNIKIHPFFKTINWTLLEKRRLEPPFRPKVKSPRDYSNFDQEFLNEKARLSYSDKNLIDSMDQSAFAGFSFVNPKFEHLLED

With `Cc1ncc(F)c(Nc2n[nH]c3c2CN(C(=O)N2C[C@@H](C)N(CC4CCOCC4)C[C@@H]2C)C3(C)C)n1` [Cmpd 1, 5-[(2S,5R)-2,5-dimethyl-4-(tetrahydro-2H-pyran-4-ylmethyl)piperazin-l-yl]carbonyl-N-(5-fluoro-2-methylpyrimidin-4-yl)-6,6-dimethyl-1,4,5,6-tetrahydropyrrolo[3,4-c]pyrazol-3-amine], in assay [1], the Animal body weights result is reported as “decreased”. Also, the Food consumption entry in assay [1] is “decreased”. The IC50 in assay [2] is 0.011 µM; in assay [3] it was 0.07 µM; in assay [5] it was 1.55 µM; in assay [7], 0.002 µM. Also, the “Kinase occupancy in spleen” value in assay [4] is listed as greater than 90%. In addition, the “Selectivity against all other PKC family members” value in assay [6] is given as “greater than 40 fold”.
